The numbers were not newly measured in patent US20090004049A1, “Method of irradiation using process of adding vitamin C” (priority 2007, published 2009), which cites them from elsewhere.

Molecules are shown by their SMILES.

The data set has as its system patients with cancer. Conditions: 10 g of vitamin C administered to patients with cancer.

In the case of `O=C1O[C@H]([C@@H](O)CO)C(O)=C1O` [vitamin C], the “increase of survival rate of patients compared with control” value is 4 times.
